According to PubChem BioAssay (NCI):
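Exposure lasted 48 hours, with cells grown in 96-well plates and compounds tested at five concentrations. TGI: concentration producing complete growth inhibition.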

Columns and labels:
Assay in all cases: NCI anticancer screen, dose series, 48 h
[1] = tested on: A498 renal
[2] = tested on: HCC-2998 colon
[3] = tested on: DMS 114 small cell lung
[4] = tested on: SF-295 CNS
[5] = tested on: MOLT-4 leukemia
[6] = tested on: HOP-18 NSCLC
[7] = tested on: CCRF-CEM leukemia
[8] = tested on: SN12C renal
[9] = tested on: 786-0 renal
[10] = tested on: OVCAR-8 ovarian
[11] = tested on: NCI-H522 lung
[12] = tested on: NCI-H23 lung
[13] = tested on: UACC-62 melanoma
[14] = tested on: LOX IMVI melanoma
[15] = tested on: KM20L2 colon
[16] = tested on: SNB-78 CNS
[17] = tested on: DMS 273 small cell lung
[18] = tested on: OVCAR-5 ovarian
[19] = tested on: NCI-H460 lung
[20] = tested on: SW-620 colon
[21] = tested on: OVCAR-4 ovarian
[22] = tested on: SK-MEL-5 melanoma
[23] = tested on: IGROV1 ovarian
[24] = tested on: CAKI-1 renal
[25] = tested on: SK-OV-3 ovarian
[26] = tested on: A549 NSCLC
[27] = tested on: NCI-H226 lung
[28] = tested on: SK-MEL-28 melanoma
[29] = tested on: SF-268 CNS
[30] = tested on: RPMI-8226 leukemia
[31] = tested on: HL-60(TB) leukemia
[32] = tested on: SR leukemia
[33] = tested on: LXFL 529 NSCLC
[34] = tested on: KM12 colon
[35] = tested on: SF-539 CNS
[36] = tested on: RXF 393 renal
[37] = tested on: K-562 leukemia
[38] = tested on: HCT-15 colon
[39] = tested on: HOP-92 NSCLC
[40] = tested on: OVCAR-3 ovarian
[41] = tested on: UO-31 renal
[42] = tested on: COLO 205 colon
[43] = tested on: SNB-19 CNS
[44] = tested on: EKVX NSCLC
[45] = tested on: M19-MEL melanoma
[46] = tested on: MALME-3M melanoma
[47] = tested on: HCT-116 colon
[48] = tested on: HT29 colon
[49] = tested on: SNB-75 CNS
[50] = tested on: U251 CNS
[51] = tested on: ACHN renal
[52] = tested on: M14 melanoma
[53] = tested on: SK-MEL-2 melanoma
[54] = tested on: UACC-257 melanoma
[55] = tested on: TK-10 renal
[56] = tested on: HOP-62 NSCLC

Measured: TGI

CCOC(=O)Cc1csc(Nc2ccccc2[N+](=O)[O-])n1
> 93.1 µM: [20]
> 70.2 µM: [14]
61.3 µM: [32]
> 100 µM: all other assays above

[N-]=[N+]=NC1(c2ccccc2)C(=O)c2cccc3c2N(CCC3)C1=O (centres undefined)
89.4 µM: [37]
82.7 µM: [54]
64.5 µM: [31]
74.3 µM: [41]
not listed: [2] | [6] | [7] | [8] | [10] | [14] | [17] | [20] | [22] | [24] | [26] | [27] | [35] | [38] | [44] | [46] | [47] | [55]
> 100 µM: all other assays above
